Measured values as given in ChEMBL document CHEMBL4680243, “N-benzyl 4,4-disubstituted piperidines as a potent class of influenza H1N1 virus inhibitors showing a novel mechanism of hemagglutinin fusion peptide interaction” (Eur J Med Chem, 2020).
Calls of active or inactive are those of the source. The calls are words filed in the database; no cut-off is given here.

What was measured:
Influenza A virus [1] = test: Antiviral activity against Influenza A virus (A/PR 8/34 (H1N1)) infected in MDCK cells assessed as reduction in virus-induced cytopathic effect measured after 72 hrs by MTS assay; format: functional, organism-based; details: A/Puerto Rico/8/1934(H1N1)
[2] = target: Cathepsin B (Homo sapiens) (UniProt P07858); test: Inhibition of human liver cathepsin B using Z-Phe-Arg-AMC as substrate preincubated for 15 mins followed by substrate addition and measured for 60 mins by fluorescence assay; details: time 75.0 min
[3] = Selectivity index, ratio of CC50 for MDCK cells to EC50 for antiviral activity against Influenza A virus (A/Puerto Rico/8/1934(H1N1)) infected in MDCK cells; format: toxicity, cell-based; details: dog, read-out: Ratio CC50/EC50
[4] = target: Procathepsin L (Homo sapiens) (UniProt P07711); test: Inhibition of human liver cathepsin L using Z-Phe-Arg-AMC as substrate preincubated for 15 mins followed by substrate addition and measured for 60 mins by fluorescence assay; details: time 75.0 min
[5] = target: T1, Cathepsin F (Homo sapiens) (UniProt Q9UBX1); test: Inhibition of recombinant human cathepsin F expressed in baculovirus infected insect cells using Z-Phe-Arg-AMC as substrate preincubated for 15 mins followed by substrate addition and measured for 60 mins by fluorescence assay; details: time 75.0 min
T1 sequence (whole entry): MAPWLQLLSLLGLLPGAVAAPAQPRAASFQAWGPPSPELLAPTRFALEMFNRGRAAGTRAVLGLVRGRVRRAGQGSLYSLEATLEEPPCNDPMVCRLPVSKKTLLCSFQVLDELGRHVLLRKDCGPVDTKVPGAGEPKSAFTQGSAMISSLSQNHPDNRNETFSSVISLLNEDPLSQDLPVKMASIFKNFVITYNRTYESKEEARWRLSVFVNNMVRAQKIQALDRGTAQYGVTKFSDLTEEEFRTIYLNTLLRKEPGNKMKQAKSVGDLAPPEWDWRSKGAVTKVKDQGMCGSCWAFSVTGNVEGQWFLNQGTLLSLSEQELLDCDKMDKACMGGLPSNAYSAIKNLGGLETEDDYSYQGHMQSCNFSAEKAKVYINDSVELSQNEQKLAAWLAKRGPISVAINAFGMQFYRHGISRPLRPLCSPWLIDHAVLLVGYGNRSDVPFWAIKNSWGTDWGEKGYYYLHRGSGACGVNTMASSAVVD

[6] = Cytotoxicity against MDCK cells assessed as reduction in cell viability measured after 72 hrs by MTS assay; format: cell-based, Canis lupus familiaris; details: dog
[7] = Cytotoxicity against MDCK cells assessed as change in cell morphology measured after 72 hrs by microscopic analysis; format: cell-based, Canis lupus familiaris; details: dog
[8] = target: T2, Transmembrane protease serine 11D (Homo sapiens) (UniProt O60235); test: Inhibition of recombinant human N-terminal His-tagged HAT (Ala42 to Ile418 residues) expressed in mouse NSO cells using Boc-Gln-Ala-Arg-AMC as substrate preincubated for 15 mins followed by substrate addition and measured for 60 mins by fluorescence assay; details: time 75.0 min
T2 sequence (whole entry): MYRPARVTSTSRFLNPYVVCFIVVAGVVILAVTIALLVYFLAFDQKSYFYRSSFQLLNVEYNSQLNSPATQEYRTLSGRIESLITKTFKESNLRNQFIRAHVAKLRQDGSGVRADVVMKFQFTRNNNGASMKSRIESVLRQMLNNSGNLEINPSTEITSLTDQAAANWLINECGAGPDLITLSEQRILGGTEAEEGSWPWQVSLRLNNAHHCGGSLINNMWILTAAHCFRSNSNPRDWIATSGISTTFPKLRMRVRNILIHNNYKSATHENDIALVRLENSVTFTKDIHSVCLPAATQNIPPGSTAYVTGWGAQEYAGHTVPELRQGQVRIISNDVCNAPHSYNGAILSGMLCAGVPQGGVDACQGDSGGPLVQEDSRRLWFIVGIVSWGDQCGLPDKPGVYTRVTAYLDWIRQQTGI

Trypsin (Homo sapiens) [9] = target: T3, Trypsin (Homo sapiens) (UniProt P07477+P07478+P35030); test: Inhibition of human trypsin using Boc-Gln-Ala-Arg-AMC as substrate preincubated for 15 mins followed by substrate addition and measured for 60 mins by fluorescence assay; format: protein assay; details: time 75.0 min
Influenza A virus [10] = test: Antiviral activity against Influenza A virus (A/PR 8/34 (H1N1)) infected in MDCK cells assessed as reduction in virus-induced cytopathic effect measured after 72 hrs by microscopic analysis; format: functional, organism-based; details: A/Puerto Rico/8/1934(H1N1)
Influenza A virus [11] = test: Antiviral activity against Influenza A virus (A/PR 8/34 (H1N1)) infected in MDCK cells assessed as reduction in viral RNA synthesis at 20 uM treated at 1 hr post-infection by RT-qPCR analysis; format: functional, organism-based; details: A/Puerto Rico/8/1934(H1N1)
[12] = target: T1, Cathepsin F (Homo sapiens); test: Inhibition of recombinant human cathepsin F expressed in baculovirus infected insect cells at 1 uM using Z-Phe-Arg-AMC as substrate preincubated for 15 mins followed by substrate addition and measured for 60 mins by fluorescence assay relative to control; details: time 75.0 min
[13] = target: Procathepsin L (Homo sapiens) (UniProt P07711); test: Inhibition of human liver cathepsin L at 1 uM using Z-Phe-Arg-AMC as substrate preincubated for 15 mins followed by substrate addition and measured for 60 mins by fluorescence assay; details: time 75.0 min
[14] = target: Cathepsin B (Homo sapiens) (UniProt P07858); test: Inhibition of human liver cathepsin B at 1 uM using Z-Phe-Arg-AMC as substrate preincubated for 15 mins followed by substrate addition and measured for 60 mins by fluorescence assay; details: time 75.0 min
Trypsin (Homo sapiens) [15] = target: T3, Trypsin (Homo sapiens); test: Inhibition of human trypsin at 1 uM using Boc-Gln-Ala-Arg-AMC as substrate preincubated for 15 mins followed by substrate addition and measured for 60 mins by fluorescence assay relative to control; format: protein assay; details: time 75.0 min
[16] = target: T2, Transmembrane protease serine 11D (Homo sapiens); test: Inhibition of recombinant human N-terminal His-tagged HAT (Ala42 to Ile418 residues) expressed in mouse NSO cells at 1 uM using Boc-Gln-Ala-Arg-AMC as substrate preincubated for 15 mins followed by substrate addition and measured for 60 mins by fluorescence assay relative to control; details: time 75.0 min

Procathepsin L (Homo sapiens), sequence (P07711 114-333 limits assumed): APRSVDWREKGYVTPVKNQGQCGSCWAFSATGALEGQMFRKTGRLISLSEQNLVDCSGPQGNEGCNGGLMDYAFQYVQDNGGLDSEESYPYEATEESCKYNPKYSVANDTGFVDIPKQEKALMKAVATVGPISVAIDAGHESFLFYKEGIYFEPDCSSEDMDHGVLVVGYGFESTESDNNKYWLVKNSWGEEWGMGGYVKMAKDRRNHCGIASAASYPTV

SMILES	EC50 (Influenza A virus [1])	inhibition [2]	inhibition [4]	inhibition [5]	CC50 at 72 h [6]	MCC at 72 h [7]	inhibition [8]	inhibition (Trypsin (Homo sapiens) [9])	EC50 (Influenza A virus [10])	other results
CC(C)(C)OC(=O)N[C@@H](CC(N)=O)C(=O)N(Cc1ccc(F)cc1)C1(C(=O)NCc2ccccc2)CCN(Cc2ccccc2)CC1	2.1 µM	inactive	inactive	inactive	> 100 µM	> 100 µM	inactive	inactive	1.8 µM	selectivity ratio [3]: 26
CCN(CC)CCCC(C)Nc1ccnc2cc(Cl)ccc12 (stereo not given)										Activity (Influenza A virus [11]): Active
CC(C)(C)OC(=O)N[C@@H](CC(=O)O)C(=O)N(Cc1ccc(F)cc1)C1(C(=O)NCc2ccccc2)CCNCC1	> 100 µM	inactive	inactive	inactive	49 µM	79 µM	inactive	inactive	> 100 µM	
CC(C)C[C@H](NC(=O)[C@@H]1C[C@H]1C(=O)O)C(=O)NCCCCNC(=N)N										inhibition [12]: 50%; inhibition [13]: Active; inhibition [14]: Active
CN(C)C(=O)COC(=O)Cc1ccc(OC(=O)c2ccc(NC(=N)N)cc2)cc1										inhibition (Trypsin (Homo sapiens) [15]): 90%; inhibition [16]: 90%
